Source: patent US3974140A, “Ureidoacetamido-penicillins” (Bayer Aktiengesellschaft, priority 1970, dated 1976)

Legend:
Test in all cases: MIC, liquid medium test tube series dilution test
E. coli 14 = type: cell-based; settings: E. coli 14, 24 hours, 37°C
Outline: (§1)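 Broth tube serial dilution in complete nutrient medium; tubes read after 24 hours' incubation at 37°C. MIC taken as the concentration in the non-turbid tube of the dilution series, expressed in units/ml.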

E. coli 183/58 = type: cell-based; settings: E. coli 183/58, 24 hours, 37°C
Outline: as §1

E. coli A 261 = type: cell-based; settings: E. coli A 261, 24 hours, 37°C
Outline: as §1

E. coli C 165 = type: cell-based; settings: E. coli C 165, 24 hours, 37°C
Outline: as §1

Klebsiella 63 = type: cell-based; settings: Klebsiella 63, 24 hours, 37°C
Outline: as §1

Klebsiella K 10 = type: cell-based; settings: Klebsiella K 10, 24 hours, 37°C
Outline: as §1

[1] = tested on: Streptoc. faec. ATCC 9790; type: cell-based; settings: Strep. faec. (Enterococcus) ATCC 9790, 24 hours, 37°C
Outline: as §1

Proteus vulg. 1017 = type: cell-based, Proteus vulgaris; settings: Proteus vulg. 1017, 24 hours, 37°C
Outline: as §1

Proteus vulg. 3400 = type: cell-based, Proteus vulgaris; settings: Proteus vulg. 3400, 24 hours, 37°C
Outline: as §1

Psdm. aerug. Bonn = type: cell-based, Pseudomonas aerug.; settings: 24 hours, 37°C
Outline: as §1

Psdm. aerug. Walter = type: cell-based, Pseudomonas aerug.; settings: 24 hours, 37°C
Outline: as §1

Staph. aureus 133 = type: cell-based, Staphylococcus aureus; settings: Staph. aureus 133, 24 hours, 37°C
Outline: as §1

Staph. aureus 1777 E = type: cell-based, Staphylococcus aureus; settings: 24 hours, 37°C
Outline: as §1

| MIC (E. coli 14) | MIC (E. coli 183/58) | MIC (E. coli A 261) [units/ml] | MIC (E. coli C 165) | MIC (Klebsiella 63) | MIC (Klebsiella K 10) | MIC [1] | MIC (Proteus vulg. 1017) | MIC (Proteus vulg. 3400) | MIC (Psdm. aerug. Bonn) | MIC (Psdm. aerug. Walter) | MIC (Staph. aureus 133) | MIC (Staph. aureus 1777 E) | SMILES |
| --- | --- | --- | --- | --- | --- | --- | --- | --- | --- | --- | --- | --- | --- |
| 12.5 units/ml | 25 units/ml | 400 | 50 units/ml | 400 units/ml | 100 units/ml | 200 units/ml | 25 units/ml | 100 units/ml | 400 units/ml | 100 units/ml | < 0.8 units/ml | 100 units/ml | CN(C(=O)NC(C(=O)N[C@@H]1C(=O)N2[C@@H]1SC(C)(C)[C@@H]2C(=O)O)c1cccs1)C(=O)c1ccccc1Cl (stereo partly drawn) [Example 135, Sodium α-(3-o-chlorobenzoyl-3-methyl-ureido)-α-thienyl(2)-methylpenicillin] |
| – | – | – | 0.8-4 units/ml | 100-500 units/ml | – | – | 4-20 units/ml | – | – | 4-20 units/ml | 0.8 units/ml | 100-500 units/ml | CCC(=O)N(C)C(=O)N[C@@H](C(=O)N[C@@H]1C(=O)N2[C@@H]1SC(C)(C)[C@@H]2C(=O)O)c1ccccc1 [Example 113, Sodium D(-)-α-(3-propionyl-3-methyl-ureido)-benzylpenicillin] |
| – | – | – | 4-20 units/ml | 20-100 units/ml | – | – | 4-20 units/ml | – | – | ~20 units/ml | 0.8 units/ml | 100-500 units/ml | CC(C)C(=O)N(C)C(=O)N[C@@H](C(=O)N[C@@H]1C(=O)N2[C@@H]1SC(C)(C)[C@@H]2C(=O)O)c1ccccc1 [Example 116, Sodium D(-)-α-(3-i-butyryl-3-methyl-ureido)-benzylpenicillin] |
| – | – | – | 4-20 units/ml | 100-500 units/ml | – | – | 20-100 units/ml | – | – | 4-20 units/ml | 0.8 units/ml | 100-500 units/ml | CCN(C(C)=O)C(=O)N[C@@H](C(=O)N[C@@H]1C(=O)N2[C@@H]1SC(C)(C)[C@@H]2C(=O)O)c1ccccc1 [Example 114, Sodium D(-)-α-(3-acetyl-3-ethyl-ureido)-benzylpenicillin] |
| 6.25 units/ml | 12.5 units/ml | 400 | 12.5 units/ml | 25 units/ml | 50 units/ml | 100 units/ml | 12.5 units/ml | 25 units/ml | 25 units/ml | 50 units/ml | – | 50 units/ml | C=CCN(C(=O)N[C@@H](C(=O)N[C@@H]1C(=O)N2[C@@H]1SC(C)(C)[C@@H]2C(=O)O)c1ccccc1)C(=O)c1ccccc1 [Example 90, Sodium D(-)-α-(3-benzoyl-3-allyl-ureido)-benzylpenicillin] |
| 6.3 units/ml | 25 units/ml | > 400 | 25 units/ml | 100 units/ml | 50 units/ml | 200 units/ml | 100 units/ml | 50 units/ml | 100 units/ml | 100 units/ml | ~ 1.6 units/ml | – | CN(C(=O)CCCCl)C(=O)N[C@@H](C(=O)N[C@@H]1C(=O)N2[C@@H]1SC(C)(C)[C@@H]2C(=O)O)c1ccccc1 [Example 24, Sodium D(-)-α-(3-γ-chlorobutyryl-3-methyl-ureido)-benzylpenicillin] |
| 3,12 units/ml | 6,25 units/ml | > 400 | 12,5 units/ml | – | 100 units/ml | – | – | – | 12,5 units/ml | 12,5 units/ml | < 0,78 units/ml | 200 units/ml | CC1(C)S[C@@H]2[C@H](NC(=O)[C@H](NC(=O)N3CCNC3=O)c3ccccc3)C(=O)N2[C@H]1C(=O)O [Example 52, D(-)-α-[(Imidazolidin-2-on-1-yl)-carbonylamino]-benzylpenicillin] |
| 1.56 units/ml | 3.12 units/ml | 400 | 6.25 units/ml | 25 units/ml | 50 units/ml | 50 units/ml | 12.5 units/ml | 6.25 units/ml | 25 units/ml | 50 units/ml | < 0.78 units/ml | – | CN(C(=O)CCCCl)C(=O)N[C@@H](C(=O)N[C@@H]1C(=O)N2[C@@H]1SC(C)(C)[C@@H]2C(=O)O)c1ccccc1 [Example 88, Sodium D(-)-α-(3-γ-chlorobutyryl-3-methyl-ureido)-benzylpenicillin] |
| 1.56 units/ml | 1.56 units/ml | 400 | 6.25 units/ml | 12.5 units/ml | 25 units/ml | 100 units/ml | 3.12 units/ml | 12.5 units/ml | 25 units/ml | 50 units/ml | < 0.78 units/ml | – | CN(C(=O)CCC(Cl)(Cl)Cl)C(=O)N[C@@H](C(=O)N[C@@H]1C(=O)N2[C@@H]1SC(C)(C)[C@@H]2C(=O)O)c1ccccc1 [Example 89, Sodium (-)-α-(3-γ-trichlorobutyryl-3-methyl-ureido)-benzylpenicillin] |
| 6.25 units/ml | 25 units/ml | 400 | 25 units/ml | 50 units/ml | 50 units/ml | 100 units/ml | 50 units/ml | 25 units/ml | 50 units/ml | 50 units/ml | 1.6 units/ml | – | Cc1ccc(C(NC(=O)N(C)C(=O)c2ccccc2F)C(=O)N[C@@H]2C(=O)N3[C@@H]2SC(C)(C)[C@@H]3C(=O)O)cc1 (stereo partly drawn) [Example 44, Sodium α-(3-o-fluorobenzoyl-3-methyl-ureido)-α-p-tolyl-methylpenicillin] |
| – | – | – | 20-100 units/ml | 100-500 units/ml | – | – | 20-100 units/ml | – | – | 20-100 units/ml | 0.8 units/ml | 100-500 units/ml | CCCN(C(C)=O)C(=O)N[C@@H](C(=O)N[C@@H]1C(=O)N2[C@@H]1SC(C)(C)[C@@H]2C(=O)O)c1ccccc1 [Example 115, Sodium D(-)-α-(3-acetyl-3-n-propyl-ureido)-benzylpenicillin] |
| > 400 units/ml | > 400 units/ml | > 400 | > 400 units/ml | > 400 units/ml | > 400 units/ml | > 400 units/ml | > 400 units/ml | > 400 units/ml | > 400 units/ml | 400 units/ml | 200 units/ml | – | CCCCCCCCCCCCCCCCCC(=O)N(C)C(=O)N[C@@H](C(=O)N[C@@H]1C(=O)N2[C@@H]1SC(C)(C)[C@@H]2C(=O)O)c1ccccc1 [Example 71, Sodium D(-)-α-(3-stearinoyl-3-methyl-ureido)-benzylpenicillin] |

| SMILES | MIC (E. coli 14) | MIC (E. coli 183/58) | MIC (E. coli A 261) [units/ml] | MIC (E. coli C 165) | MIC (Klebsiella 63) | MIC (Klebsiella K 10) | MIC [1] | MIC (Proteus vulg. 1017) | MIC (Proteus vulg. 3400) | MIC (Psdm. aerug. Bonn) | MIC (Psdm. aerug. Walter) | MIC (Staph. aureus 133) | MIC (Staph. aureus 1777 E) |
| --- | --- | --- | --- | --- | --- | --- | --- | --- | --- | --- | --- | --- | --- |
| C=CCN(C(C)=O)C(=O)N[C@@H](C(=O)N[C@@H]1C(=O)N2[C@@H]1SC(C)(C)[C@@H]2C(=O)O)c1ccccc1 [Example 1, Sodium D(-)-α-(3-acetyl-3-allylureido)-benzylpenicillin] | 25 units/ml | 100 units/ml | > 400 | 100 units/ml | 50 units/ml | 50 units/ml | 200 units/ml | 400 units/ml | 200 units/ml | 400 units/ml | 200 units/ml | 1.6 units/ml | – |
| CN(C(=O)N[C@@H](C(=O)N[C@@H]1C(=O)N2[C@@H]1SC(C)(C)[C@@H]2C(=O)O)c1ccccc1)C(=O)c1cccs1 [Example 37, Sodium D(-)-α-[3-(2-thenoyl)-3-methyl-ureido]-benzylpenicillin] | < 0.8 units/ml | 0.8-4 units/ml | > 500 | 0.8-4 units/ml | 4-20 units/ml | 20-100 units/ml | 20-100 units/ml | 4-20 units/ml | 4-20 units/ml | 4-20 units/ml | 4-20 units/ml | < 0.8 units/ml | – |
